Experiments:
Assay in all cases: Test B pre-/postemergence plant response
Assay type in all cases: in vivo
[1] = test system: lambsquarters (Chenopodium album)
How it was run: (§1)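 Compound in solvent + surfactant applied pre-em (loam/sand) or post-em (plants 2–18 cm, peat medium); greenhouse hold 13–15 days; visual 0–100 control score.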

[2] = test system: Surinam grass (Brachiaria decumbens)
How it was run: as §1

[3] = test system: ragweed (common ragweed, Ambrosia elatior)
How it was run: as §1

[4] = test system: Italian ryegrass (Lolium multiflorum)
How it was run: as §1

[5] = test system: corn (Zea mays)
How it was run: as §1

[6] = test system: blackgrass (Alopecurus myosuroides)
How it was run: as §1

[7] = test system: soybean (Glycine max)
How it was run: as §1

[8] = test system: johnsongrass (Sorghum halepense)
How it was run: as §1

[9] = test system: wild oat (Avena fatua)
How it was run: as §1

[10] = test system: goosegrass (Eleusine indica)
How it was run: as §1

[11] = test system: velvetleaf (Abutilon theophrasti)
How it was run: as §1

[12] = test system: yellow nutsedge (Cyperus esculentus)
How it was run: as §1

[13] = test system: downy bromegrass (Bromus tectorum)
How it was run: as §1

[14] = test system: large crabgrass (Digitaria sanguinalis)
How it was run: as §1

[15] = test system: wheat (Triticum aestivum)
How it was run: as §1

[16] = test system: woolly cupgrass (Eriochloa villosa)
How it was run: as §1

[17] = test system: kochia (Kochia scoparia)
How it was run: as §1

[18] = test system: pigweed (Amaranthus retroflexus)
How it was run: as §1

[19] = 250 g ai/ha, Preemergence, 0 to 100 scale
[20] = Postemergence, 31 g ai/ha, scale 0 to 100 (0 no effect, 100 complete control)
[21] = Postemergence, 62 g ai/ha, scale 0 (no effect) to 100 (complete control), 13 to 15 days
[22] = Postemergence, 125 g ai/ha, visual rating after 13 to 15 days, scale 0 (no effect) to 100 (complete control)
[23] = Postemergence, 250 g ai/ha, scale 0 to 100
[24] = Preemergence, 31 g ai/ha, scale 0 to 100 (0 no effect, 100 complete control)
[25] = Preemergence, 62 g ai/ha, scale 0 to 100, 0 no effect, 100 complete control
[26] = Preemergence, 125 g ai/ha, 0 to 100 scale

In the case of “5-[(2-hydroxy-6-oxo-1-cyclohexen-1-yl)carbonyl]-3-phenyl-2-(3-pyridinyl)-4(3H)-pyrimidone [Compound 113]”, the “Plant response rating, Lambsquarters” value [1, 19] is reported as 100, the “Plant response rating, Lambsquarters” value [1, 20] is reported as 0 and the “Plant response rating, Lambsquarters” value [1, 21] is reported as 65. For the same substance, the “Plant response rating, Lambsquarters” value [1, 22] was 65, the “Lambsquarters plant response rating” value [1, 23] was 75 and the “Plant response rating, Lambsquarters” value [1, 24] was 100. The “Plant response rating, Lambsquarters” value [1, 25] was 100, the “Lambsquarters plant response rating” value [1, 26] was 100 and the “Plant response rating, Surinam Grass” value [2, 19] was 10. The “Plant response rating, Surinam Grass” value [2, 20] was 0, the “Plant response rating, Surinam Grass” value [2, 21] was 10 and the “Plant response rating, Surinam Grass” value [2, 22] was 20. The “Surinam Grass plant response rating” value [2, 23] was 25, the “Plant response rating, Surinam Grass” value [2, 24] was 0 and the “Plant response rating, Surinam Grass” value [2, 25] was 0. For the same substance, the “Surinam Grass plant response rating” value [2, 26] was 0, the “Plant response rating, Ragweed” value [3, 19] was 90 and the “Plant response rating, Ragweed” value [3, 20] was 50. For the same substance, the “Plant response rating, Ragweed” value [3, 21] was 65, the “Plant response rating, Ragweed” value [3, 22] was 80 and the “Ragweed plant response rating” value [3, 23] was 85. The “Plant response rating, Ragweed” value [3, 24] was 0, the “Plant response rating, Ragweed” value [3, 25] was 0 and the “Ragweed plant response rating” value [3, 26] was 15. For the same substance, the “Plant response rating, Ryegrass, Italian” value [4, 19] was 0, the “Plant response rating, Ryegrass, Italian” value [4, 20] was 0 and the “Plant response rating, Ryegrass, Italian” value [4, 21] was 0. For the same substance, the “Plant response rating, Ryegrass, Italian” value [4, 22] was 0, the “Ryegrass, Italian plant response rating” value [4, 23] was 20 and the “Plant response rating, Ryegrass, Italian” value [4, 24] was 0. The “Plant response rating, Ryegrass, Italian” value [4, 25] was 0, the “Ryegrass, Italian plant response rating” value [4, 26] was 0 and the “Plant response rating, Corn” value [5, 19] was 0. The “Plant response rating, Corn” value [5, 20] was 0, the “Plant response rating, Corn” value [5, 21] was 0 and the “Plant response rating, Corn” value [5, 22] was 0. For the same substance, the “Corn plant response rating” value [5, 23] was 10, the “Plant response rating, Corn” value [5, 24] was 0 and the “Plant response rating, Corn” value [5, 25] was 0. The “Corn plant response rating” value [5, 26] was 0, the “Plant response rating, Blackgrass” value [6, 19] was 0 and the “Plant response rating, Blackgrass” value [6, 20] was 0. The “Plant response rating, Blackgrass” value [6, 21] was 0, the “Plant response rating, Blackgrass” value [6, 22] was 0 and the “Blackgrass plant response rating” value [6, 23] was 5. For the same substance, the “Plant response rating, Blackgrass” value [6, 24] was 0, the “Plant response rating, Blackgrass” value [6, 25] was 0 and the “Blackgrass plant response rating” value [6, 26] was 0. The “Plant response rating, Soybean” value [7, 19] was 30, the “Plant response rating, Soybean” value [7, 20] was 60 and the “Plant response rating, Soybean” value [7, 21] was 65. The “Plant response rating, Soybean” value [7, 22] was 75, the “Soybean plant response rating” value [7, 23] was 85 and the “Plant response rating, Soybean” value [7, 24] was 0. The “Plant response rating, Soybean” value [7, 25] was 0, the “Soybean plant response rating” value [7, 26] was 20 and the “Plant response rating, Johnsongrass” value [8, 19] was 0. For the same substance, the “Plant response rating, Johnsongrass” value [8, 20] was 0, the “Plant response rating, Johnsongrass” value [8, 21] was 0 and the “Plant response rating, Johnsongrass” value [8, 22] was 0. For the same substance, the “Johnsongrass plant response rating” value [8, 23] was 0, the “Plant response rating, Johnsongrass” value [8, 24] was 0 and the “Plant response rating, Johnsongrass” value [8, 25] was 0. For the same substance, the “Johnsongrass plant response rating” value [8, 26] was 0, the “Plant response rating, Oat, Wild” value [9, 19] was 0 and the “Plant response rating, Oat, Wild” value [9, 20] was 0. The “Plant response rating, Oat, Wild” value [9, 21] was 0, the “Plant response rating, Oat, Wild” value [9, 22] was 0 and the “Oat, Wild plant response rating” value [9, 23] was 10. The “Plant response rating, Oat, Wild” value [9, 24] was 0, the “Plant response rating, Oat, Wild” value [9, 25] was 0 and the “Oat, Wild plant response rating” value [9, 26] was 0. For the same substance, the “Plant response rating, Goosegrass” value [10, 19] was 60, the “Plant response rating, Goosegrass” value [10, 20] was 20 and the “Plant response rating, Goosegrass” value [10, 21] was 25. The “Plant response rating, Goosegrass” value [10, 22] was 35, the “Goosegrass plant response rating” value [10, 23] was 35 and the “Plant response rating, Goosegrass” value [10, 24] was 10. For the same substance, the “Goosegrass plant response rating” value [10, 26] was 45, the “Plant response rating, Velvetleaf” value [11, 19] was 100 and the “Plant response rating, Velvetleaf” value [11, 20] was 70. The “Plant response rating, Velvetleaf” value [11, 21] was 80, the “Plant response rating, Velvetleaf” value [11, 22] was 90 and the “Velvetleaf plant response rating” value [11, 23] was 98. The “Plant response rating, Velvetleaf” value [11, 24] was 40, the “Plant response rating, Velvetleaf” value [11, 25] was 85 and the “Velvetleaf plant response rating” value [11, 26] was 100. For the same substance, the “Plant response rating, Nutsedge, Yellow” value [12, 19] was 55, the “Plant response rating, Nutsedge, Yellow” value [12, 20] was 0 and the “Plant response rating, Nutsedge, Yellow” value [12, 21] was 0. For the same substance, the “Plant response rating, Nutsedge, Yellow” value [12, 22] was 0, the “Nutsedge, Yellow plant response rating” value [12, 23] was 0 and the “Plant response rating, Nutsedge, Yellow” value [12, 24] was 0. The “Plant response rating, Nutsedge, Yellow” value [12, 25] was 10, the “Nutsedge, Yellow plant response rating” value [12, 26] was 15 and the “Plant response rating, Bromegrass, Downy” value [13, 19] was 0. For the same substance, the “Plant response rating, Bromegrass, Downy” value [13, 20] was 0, the “Plant response rating, Bromegrass, Downy” value [13, 21] was 0 and the “Plant response rating, Bromegrass, Downy” value [13, 22] was 5. The “Bromegrass, Downy plant response rating” value [13, 23] was 5, the “Plant response rating, Bromegrass, Downy” value [13, 24] was 0 and the “Plant response rating, Bromegrass, Downy” value [13, 25] was 0. For the same substance, the “Bromegrass, Downy plant response rating” value [13, 26] was 0, the “Plant response rating, Crabgrass, Large” value [14, 19] was 95 and the “Plant response rating, Crabgrass, Large” value [14, 20] was 30. For the same substance, the “Plant response rating, Crabgrass, Large” value [14, 21] was 45, the “Plant response rating, Crabgrass, Large” value [14, 22] was 45 and the “Crabgrass, Large plant response rating” value [14, 23] was 60. The “Plant response rating, Crabgrass, Large” value [14, 24] was 0, the “Plant response rating, Crabgrass, Large” value [14, 25] was 0 and the “Crabgrass, Large plant response rating” value [14, 26] was 45. The “Plant response rating, Wheat” value [15, 19] was 0, the “Plant response rating, Wheat” value [15, 20] was 0 and the “Plant response rating, Wheat” value [15, 21] was 0. For the same substance, the “Plant response rating, Wheat” value [15, 22] was 10, the “Wheat plant response rating” value [15, 23] was 15 and the “Plant response rating, Wheat” value [15, 24] was 0. For the same substance, the “Plant response rating, Wheat” value [15, 25] was 0, the “Wheat plant response rating” value [15, 26] was 0 and the “Plant response rating, Cupgrass, Woolly” value [16, 19] was 45. For the same substance, the “Plant response rating, Cupgrass, Woolly” value [16, 20] was 0, the “Plant response rating, Cupgrass, Woolly” value [16, 21] was 50 and the “Plant response rating, Cupgrass, Woolly” value [16, 22] was 50. The “Cupgrass, Woolly plant response rating” value [16, 23] was 65, the “Plant response rating, Cupgrass, Woolly” value [16, 24] was 0 and the “Plant response rating, Cupgrass, Woolly” value [16, 25] was 0. For the same substance, the “Cupgrass, Woolly plant response rating” value [16, 26] was 0, the “Plant response rating, Kochia” value [17, 19] was 100 and the “Plant response rating, Kochia” value [17, 20] was 0. For the same substance, the “Plant response rating, Kochia” value [17, 21] was 45, the “Plant response rating, Kochia” value [17, 22] was 45 and the “Kochia plant response rating” value [17, 23] was 50. For the same substance, the “Plant response rating, Kochia” value [17, 24] was 15, the “Plant response rating, Kochia” value [17, 25] was 100 and the “Kochia plant response rating” value [17, 26] was 100. For the same substance, the “Plant response rating, Pigweed” value [18, 19] was 100, the “Plant response rating, Pigweed” value [18, 20] was 75 and the “Plant response rating, Pigweed” value [18, 21] was 75. The “Plant response rating, Pigweed” value [18, 22] was 90, the “Pigweed plant response rating” value [18, 23] was 98 and the “Plant response rating, Pigweed” value [18, 24] was 100. For the same substance, the “Plant response rating, Pigweed” value [18, 25] was 100 and the “Pigweed plant response rating” value [18, 26] was 100.

Source: patent US8952024B2, “Herbicidal pyrimidone derivatives” (E I du Pont de Nemours and Company, priority 2009, dated 2015)
